Measured values reported in US10092648B2, “Selective glucagon-like-peptide-2 (GLP-2) analogues” (Zealand Pharma A/S, priority 2006, dated 2018).

Assays:
hGLP-2 receptor = target: T1, hGLP-2 receptor (Homo sapiens, UniProt O95838); assay: In vitro screening for agonism on the GLP-2 receptor recombinantly expressed in BHK-21 cells (CRE-luciferase reporter); type: cell-based
T1 construct: expressed in transfected cells; host or cells: BHK-21 (C13) cells, transient transfection with Lipofectamine 2000
T1 sequence (O95838 1-553): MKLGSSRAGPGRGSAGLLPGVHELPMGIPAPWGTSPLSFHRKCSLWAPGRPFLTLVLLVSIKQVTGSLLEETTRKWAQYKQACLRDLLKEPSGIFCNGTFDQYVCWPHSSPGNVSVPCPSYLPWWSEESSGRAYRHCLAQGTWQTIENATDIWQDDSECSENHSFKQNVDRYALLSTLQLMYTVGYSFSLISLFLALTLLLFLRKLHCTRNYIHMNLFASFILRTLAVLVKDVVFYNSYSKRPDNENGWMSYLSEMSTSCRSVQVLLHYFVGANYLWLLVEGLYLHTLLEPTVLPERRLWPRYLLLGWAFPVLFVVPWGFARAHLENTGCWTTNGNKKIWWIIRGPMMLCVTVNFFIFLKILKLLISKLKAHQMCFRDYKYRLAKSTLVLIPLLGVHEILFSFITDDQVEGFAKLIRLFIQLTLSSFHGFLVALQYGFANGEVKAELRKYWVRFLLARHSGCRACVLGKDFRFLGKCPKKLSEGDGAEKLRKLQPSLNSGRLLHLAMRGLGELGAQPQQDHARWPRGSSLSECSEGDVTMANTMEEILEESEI
Method: The screening was done using BHK21 cells transiently transfected with GLP-2 receptor and the CRE-luciferase reporter gene construct. Dose-response curves and EC50 values were determined using seven concentrations from 10 fM to 10 nM and triplicate points for each concentration. Control peptide was used on all test plates. BHK-21 cells are seeded in 10 cm TC-Petri dishes and grown to 70-80% confluency. Subsequently, medium is changed to serum-free transfection medium. DNA (7.5 μg hGLP-2 receptor vector and 7.5 μg CRE-luciferase vector) and Lipofectamine 2000 are diluted in OptiMEM, combined, and added to the cells after 20-30 min. Cells are incubated in the incubator at 37° C., 5% CO2 for 4 hr, trypsinized, and reseeded at 35,000 cells per well in 96-well plates. Cells are incubated overnight in full growth medium in order to allow expression of the transgenes. […] Baseline activity is controled with stimulation buffer alone. These solutions are pre-warmed to 37° C. for 30 min. Cells are rinsed with pre-warmed (37° C.) stimulation buffer, and incubated with 100 μl of the pre-warmed peptide dilutions and control for 5 hr at 37° C., 5% CO2. The LucLite enzyme substrate/lysis buffer is prepared shortly before the end of the incubation. 100 μl LucLite substrate are added to each well, and light emission is counted on a suitable counter (e.g. Wallac VictorII). EC50 values are derived from the raw data by fitting with a four parameter logistic equation (Microcal Origin 5.0 or GraphPad 4).

male C57BL mice [1] = assay: In vivo stimulation of intestinal growth, 800 nmol/kg (Example 10); parameters: key to Small intestine-colon sensitivity index: (SI/Colon) of compound divided by (SI/Colon) of reference GLP-2; conditions: 800 nmol/kg s.c. once daily for 3 days
Description: Individual groups (n=6-10) of mice were given 800 nmol/kg of each compound, s.c, once daily for three consecutive days. For comparison purposes other groups of animals were given either an equimolar dose of [[…]]GLP-2 (ZP1559) or vehicle (phosphate buffered saline, pH 7.4) in the same dosing regimen Twenty-four hours after the last dose of compound had been given the mice were sacrificed and the small intestine (from the pylorus to the cecum) and the colon (intestine distal to cecum) was emptied and weighed. To correct for slight difference in body weight (BW), the organ mass of the small intestine (SI) and colon were expressed relative to BW. The non-selective reference compound [[…]]GLP-2 has been reported to stimulate gastrointestinal growth in both esophagus, stomach, small intestine and colon and to evaluate differences in growth pattern induced by compounds, the small intestine-colon sensitivity index of compound X was calculated as: […]

male C57BL mice [2] = assay: In vivo stimulation of intestinal growth, 200 nmol/kg (Example 11)
Summary of the method: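 Mice (n=6-10 per group) dosed s.c. at 200 nmol/kg once daily for three days; controls received equimolar [[MUT]]GLP-2 or PBS pH 7.4 vehicle.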

male C57BL mice [3] = assay: In vivo stimulation of stomach growth, 200 nmol/kg (Example 12)
Summary of the method: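 Mice (n=6-10/group) received 200 nmol/kg s.c. once daily for 3 days, with PBS pH 7.4 vehicle and an equimolar GLP-2 comparator. Stomach/colon sensitivity index relative to GLP-2 was calculated, with ≥1.05 deemed stomach-selective.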

[4] = DPP IV degradation and renal clearance; Tavares et al. 2000; cited from earlier work

## H-HGEGSFSDELATILEALAASDFISWLISTKITD-NH2 [ZP2268]
hGLP-2 receptor
  EC50: 6.17 pM
Male C57BL mice [1]
  Colon-BW, compared to 1559 in %: 112.5%
  Preferential stimulation of epithelial growth in the small intestine (summary): preferentially stimulating epithelial growth in the small intestine
  SI-BW, compared to 1559 in %: 123.6%
  Sto-BW, compared to 1559 in %: 87.4%
Male C57BL mice [1]; (SI/Colon)x/(SI/Colon)[Gly2]GLP-2
  Small intestine-colon sensitivity index: 1.10 ± 0.03
Male C57BL mice [1]; relative to 1559
  Sensitivity index Si/Colon: 1.10
  Sensitivity index Stomach/Co: 0.78
Male C57BL mice [1]; colon mass relative to BW, % vs. [Gly2]GLP-2
  Colon: 112 ± 4 %
Male C57BL mice [1]; small intestine mass relative to BW, [Gly2]GLP-2 = 100%
  SI (% vs. [Gly2]GLP-2: 124 ± 3 %
Male C57BL mice [2]; colon weight relative to body weight, relative to ZP1559
  Colon-BW, compared to 1559 in %: 112.5%
Male C57BL mice [2]; ratio SI-BW / Colon-BW
  Sensitivity index Si/Co: 1.10
Male C57BL mice [2]; small intestine weight relative to body weight, relative to ZP1559
  SI-BW, compared to 1559 in %: 123.6%
Male C57BL mice [3]; ratio Stomach-BW / Colon-BW
  Sensitivity index Stomach/Co: 0.78
Male C57BL mice [3]; stomach weight relative to body weight, relative to ZP1559
  Stomach-BW, compared to 1559 in %: 87.4%

## H-His-Ala-Asp-Gly-Ser-Phe-Ser-Asp-Glu-Met-Asn-Thr-Ile-Leu-Asp-Asn-Leu-Ala-Ala-Arg-Asp-Phe-Ile-Asn-Trp-Leu-Ile-Gln-Thr-Lys-Ile-Thr-Asp-OH [GLP-2(1-33)]
[4]
  half life: about 7 minutes
